# From ChEMBL document CHEMBL1159016, “Patellamide E: a new cyclic peptide from the ascidian Lissoclinum patella” (J Nat Prod, 1992)
# Tested on: HCT-116
# Assay: Cytotoxicity against human HCT116 cells
# Format: functional, cell-based
smiles,measurement,value
CC[C@H](C)[C@@H]1NC(=O)c2csc(n2)[C@@H](C(C)C)NC(=O)[C@H]2N=C(O[C@@H]2C)[C@H](C(C)C)NC(=O)c2csc(n2)[C@@H](Cc2ccccc2)NC(=O)[C@H]2N=C1O[C@@H]2C [PATELLAMIDE E],IC50,125 µg/mL
